Experimental data taken from patent US20240294522A1 (Lead Discovery Center GmbH, priority 2021, published 2024).

Experiments:
[1] = molecular target: T1, GRK5 (Homo sapiens, UniProt P34947); test: Lance Kinase Activity Assay, GRK5; conditions: biochemical Lance kinase activity assay; class symbols A-F; read-out: GRK5 LANCE Assay (IC-50)
T1 construct: purchased Thermo Scientific
Experimental: (§1) This protocol describes how the Lance Kinase Activity Assay was performed to determine IC50 values of compounds of general formula (I) against GRK5 and GRK2.
(§2) The principle behind this enzymatic assay is based upon the phosphorylation of the Ulight-peptide substrate. It is detected by using a specific EU-labeled anti-phospho peptide antibody. The binding of the Eu labeled anti-phospho peptide antibody to the phosphorylated ULight labeled peptide gives rise to a FRET-signal. Binding of an inhibitor to the kinase prevents phosphorylation of the Ulight-substrate, resulting in a loss of FRET. In tables 2 and 3 the relevant information for these two LANCE assays is summarized.
(§3) For every sample, 2 μl of assay buffer (50 mM HEPES pH 7,5, 10 mM MgCL2, 1 mM EGTA 0,01% Tween 20, 1% DMSO, 2 mM DTT) were transferred into a suitable assay plate (e.g. Corning #3673). Compounds were added in a concentration range from 10 μM to 0.0025 μM using an acoustic dispenser (Echo520 from Labcycte, San Jose, USA) equipped with Echo Dose Response software. After that 6 μl of kinase-substrate mix was added. Reaction was started by addition of 2 μl ATP working solution and mixed using a Bioshake 5000 microplate shaker (Q Instruments, Jena, Germany).
(§4) After 1 h incubation at room temperature the reaction was stopped with 10 μl detection mix containing the Eu-labeled phosphospecific antibody and 10 mM EDTA. After a second incubation period of 1 h at room temperature the FRET signal was measured at 340 nm excitation, 665 nm and 615 nm emission (for the ULight-substrate and Eu-AB, respectively) with an Envision microplate reader (Perkin Elmer, Waltham, MA, USA) with 50 μs delay and 300 μs integration time. IC50 values were determined from the sigmoidal dose response curves with the software Quattro Workflow (Quattro GmbH, Munich, Germany).
(§5) Inhibition is indicated as IC50 [nM] (“−”=not measured). Compounds having an activity designated as “A” provided an IC50≤50 nM; compounds having an activity designated as “B” provided an 50 nM<IC50≤100 nM; compounds having an activity designated as “C” provided an 100 nM<IC50≤500 nM; compounds having an activity designated as “D” provided an 500 nM<IC50≤1000 nM; compounds having an activity designated as “E” provided an 1000 nM<IC50≤10000 nM; and compounds having an activity designated as “F” provided an IC50>10000 nM.

[2] = molecular target: T2, GRK2 (Homo sapiens, UniProt P25098); test: Lance Kinase Activity Assay, GRK2; conditions: biochemical Lance kinase activity assay; class symbols A-F; read-out: GRK2 LANCE Assay (IC-50)
T2 construct: purchased Thermo Scientific
T2 sequence (P25098 1-689): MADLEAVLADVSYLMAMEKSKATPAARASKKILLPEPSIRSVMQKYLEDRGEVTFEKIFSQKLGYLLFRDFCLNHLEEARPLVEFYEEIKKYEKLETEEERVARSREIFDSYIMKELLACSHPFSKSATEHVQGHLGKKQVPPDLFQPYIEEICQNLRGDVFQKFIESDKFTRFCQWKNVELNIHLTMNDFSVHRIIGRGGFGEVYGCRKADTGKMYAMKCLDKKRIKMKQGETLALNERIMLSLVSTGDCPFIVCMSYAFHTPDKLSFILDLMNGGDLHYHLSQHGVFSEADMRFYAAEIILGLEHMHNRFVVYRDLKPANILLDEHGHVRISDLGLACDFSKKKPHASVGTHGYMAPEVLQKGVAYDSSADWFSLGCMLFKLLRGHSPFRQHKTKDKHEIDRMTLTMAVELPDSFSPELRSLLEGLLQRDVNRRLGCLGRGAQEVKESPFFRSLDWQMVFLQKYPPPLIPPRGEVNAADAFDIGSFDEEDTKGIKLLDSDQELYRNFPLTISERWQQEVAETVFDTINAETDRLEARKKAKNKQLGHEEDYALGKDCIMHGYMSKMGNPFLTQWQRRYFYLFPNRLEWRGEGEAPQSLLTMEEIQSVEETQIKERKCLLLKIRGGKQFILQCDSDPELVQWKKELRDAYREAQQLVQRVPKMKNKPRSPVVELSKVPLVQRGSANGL
Experimental: as §1, §2, §3, §4, §5

T1 sequence (P34947 whole entry): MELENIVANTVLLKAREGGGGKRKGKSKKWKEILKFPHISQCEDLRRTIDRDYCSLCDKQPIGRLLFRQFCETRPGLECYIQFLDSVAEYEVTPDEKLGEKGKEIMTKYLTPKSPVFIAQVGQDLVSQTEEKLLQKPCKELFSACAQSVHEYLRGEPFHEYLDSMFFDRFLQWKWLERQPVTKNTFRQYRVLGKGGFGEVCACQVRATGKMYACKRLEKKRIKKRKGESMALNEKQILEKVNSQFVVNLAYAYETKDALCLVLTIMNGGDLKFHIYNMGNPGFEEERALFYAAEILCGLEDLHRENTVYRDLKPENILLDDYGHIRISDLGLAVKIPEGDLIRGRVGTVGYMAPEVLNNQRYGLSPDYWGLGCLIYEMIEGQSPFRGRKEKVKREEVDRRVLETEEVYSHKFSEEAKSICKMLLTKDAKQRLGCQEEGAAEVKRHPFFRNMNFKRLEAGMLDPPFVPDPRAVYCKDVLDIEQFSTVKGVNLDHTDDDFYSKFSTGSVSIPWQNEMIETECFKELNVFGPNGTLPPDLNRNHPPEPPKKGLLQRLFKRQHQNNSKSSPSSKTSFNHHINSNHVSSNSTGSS

SMILES | IC50 [1] [nM] | IC50 [2] [nM]
COc1ccc([C@@H](C)NC(=O)/C=C/c2c[nH]c3ncc(OCCN(C)C)cc23)cc1OC [Example 56, (R,E)-N-(1-(3,4-dimethoxyphenyl)ethyl)-3-(5-(2-(dimethylamino)ethoxy)-1H-pyrrolo[2,3-b]pyridin-3-yl)acrylamide] | 50 to 100 | > 10000
COc1ccc([C@@H](C)NC(=O)/C=C/c2c[nH]c3nccc(-c4cccc(N(C)C)c4)c23)cc1OC [Example 228, (R,E)-N-(1-(3,4-dimethoxyphenyl)ethyl)-3-(4-(3-(dimethylamino)phenyl)-1H-pyrrolo[2,3-b]pyridin-3-yl)acrylamide] | 50 to 100 | 1000 to 10000
COc1ccc([C@@H](C)NC(=O)/C(C#N)=C/c2c[nH]c3ncc(-c4cccc(CN5CCN(C)CC5)c4)cc23)cc1OC [Example 118, (R,E)-2-cyano-N-(1-(3,4-dimethoxyphenyl)ethyl)-3-(5-(3-((4-methylpiperazin-1-yl)methyl)phenyl)-1H-pyrrolo[2,3-b]pyridin-3-yl)acrylamide] | ≤ 50 | 1000 to 10000
COc1ccc(C(CCN(C)C)NC(=O)/C(C#N)=C/c2c[nH]c3ncccc23)cc1 (stereo not shown) [Example 51, (E)-2-cyano-N-(3-(dimethylamino)-1-(4-methoxyphenyl)propyl)-3-(1H-pyrrolo[2,3-b]pyridin-3-yl)acrylamide] | ≤ 50 | 500 to 1000
COc1ccc([C@@H](C)NC(=O)/C(C#N)=C/c2c[nH]c3ncc(-c4cnn(CC(C)O)c4)cc23)cc1OC (stereo partly shown) [Example 157] | ≤ 50 | 1000 to 10000
CC(=O)Nc1cccc(CNC(=O)/C(C#N)=C/c2c[nH]c3ncccc23)c1 [Example 34, (E)-N-(3-acetamidobenzyl)-2-cyano-3-(1H-pyrrolo[2,3-b]pyridin-3-yl)acrylamide] | 100 to 500 | ≤ 50
COc1ccc([C@@H](C)NC(=O)/C(C#N)=C/c2c[nH]c3ncc(C4=CCCCC4)cc23)cc1OC [Example 156, (R,E)-2-cyano-3-(5-(cyclohex-1-en-1-yl)-1H-pyrrolo[2,3-b]pyridin-3-yl)-N-(1-(3,4-dimethoxyphenyl)ethyl)acrylamide] | 100 to 500 | > 10000
N#C/C(=C\c1c[nH]c2ncc(Cl)cc12)C(=O)NCc1ccc(F)cc1 [Example 72, (E)-3-(5-chloro-1H-pyrrolo[2,3-b]pyridin-3-yl)-2-cyano-N-(4-fluorobenzyl)acrylamide] | 1000 to 10000 | 1000 to 10000
COc1ccc([C@@H](C)NC(=O)/C(C#N)=C/c2c[nH]c3ncc(N4CCOCC4)cc23)cc1OC [Example 84, (R,E)-2-cyano-N-(1-(3,4-dimethoxyphenyl)ethyl)-3-(5-morpholino-1H-pyrrolo[2,3-b]pyridin-3-yl)acrylamide] | ≤ 50 | 1000 to 10000
COc1ccc([C@@H](C)NC(=O)/C(C#N)=C/c2c[nH]c3ncc(-c4ccc5nc(C)cn5c4)cc23)cc1OC [Example 162] | ≤ 50 | 1000 to 10000
COc1ccc([C@@H](C)NC(=O)/C(C#N)=C/c2c[nH]c3ncc(O)cc23)cc1OC [Example 81, (R,E)-2-cyano-N-(1-(3,4-dimethoxyphenyl)ethyl)-3-(5-hydroxy-1H-pyrrolo[2,3-b]pyridin-3-yl)acrylamide] | ≤ 50 | 1000 to 10000
N#C/C(=C\c1c[nH]c2ncccc12)C(=O)NC(C#N)c1ccccc1 (stereo not shown) [Example 49, (E)-2-cyano-N-(cyano(phenyl)methyl)-3-(1H-pyrrolo[2,3-b]pyridin-3-yl)acrylamide] | 1000 to 10000 | > 10000
N#C/C(=C\c1c[nH]c2ncccc12)C(=O)NC(CO)c1ccccc1 (stereo not shown) [Example 32, (E)-2-cyano-N-(2-hydroxy-1-phenylethyl)-3-(1H-pyrrolo[2,3-b]pyridin-3-yl)acrylamide] | 50 to 100 | 50 to 100
COc1ccc([C@@H](C)NC(=O)/C(C#N)=C/c2c[nH]c3nccc(-c4ccc(N5CCN(C)CC5)cc4)c23)cc1OC [Example 171, (R,E)-2-cyano-N-(1-(3,4-dimethoxyphenyl)ethyl)-3-(4-(4-(4-methylpiperazin-1-yl)phenyl)-1H-pyrrolo[2,3-b]pyridin-3-yl)acrylamide] | ≤ 50 | 1000 to 10000
COc1ccc([C@@H](C)NC(=O)/C=C/c2c[nH]c3nccc(-c4ccc(CN(C)C)cc4)c23)cc1OC [Example 223, (R,E)-N-(1-(3,4-dimethoxyphenyl)ethyl)-3-(4-(4-((dimethylamino)methyl)phenyl)-1H-pyrrolo[2,3-b]pyridin-3-yl)acrylamide] | 100 to 500 | > 10000
COc1ccc([C@@H](C)NC(=O)/C(C#N)=C/c2c[nH]c3ncc(-c4ccc(F)c(S(C)(=O)=O)c4)c(C)c23)cc1OC [Example 245, (R,E)-2-cyano-N-(1-(3,4-dimethoxyphenyl)ethyl)-3-(5-(4-fluoro-3-(methylsulfonyl)phenyl)-4-methyl-1H-pyrrolo[2,3-b]pyridin-3-yl)acrylamide] | 500 to 1000 | > 10000
C[C@@H](NC(=O)/C(C#N)=C/c1c[nH]c2ncccc12)c1ccccc1 [Example 64, (R,E)-2-cyano-N-(1-phenylethyl)-3-(1H-pyrrolo[2,3-b]pyridin-3-yl)acrylamide] | 50 to 100 | 100 to 500
CCN1CCN(S(=O)(=O)c2ccc(-c3cnc4[nH]cc(/C=C(\C#N)C(=O)N[C@H](C)c5ccc(OC)c(OC)c5)c4c3)cc2)CC1 [Example 121, (R,E)-2-cyano-N-(1-(3,4-dimethoxyphenyl)ethyl)-3-(5-(4-((4-ethylpiperazin-1-yl)sulfonyl)phenyl)-1H-pyrrolo[2,3-b]pyridin-3-yl)acrylamide] | 100 to 500 | > 10000
COc1ccc([C@@H](C)NC(=O)/C(C#N)=C/c2c[nH]c3ncc(-c4cnn(C)c4)c(C)c23)cc1OC [Example 99, (R,E)-2-cyano-N-(1-(3,4-dimethoxyphenyl)ethyl)-3-(4-methyl-5-(1-methyl-1H-pyrazol-4-yl)-1H-pyrrolo[2,3-b]pyridin-3-yl)acrylamide] | 100 to 500 | > 10000
COc1ccc([C@@H](C)NC(=O)/C(C#N)=C/c2c[nH]c3ncc(-c4cccc(S(C)(=O)=O)c4)cc23)cc1OC [Example 125] | ≤ 50 | > 10000
COc1ccc([C@@H](C)NC(=O)/C=C/c2c[nH]c3nccc(-c4ccc(C(N)=O)cc4)c23)cc1OC [Example 236, (R,E)-4-(3-(3-((1-(3,4-dimethoxyphenyl)ethyl)amino)-3-oxoprop-1-en-1-yl)-1H-pyrrolo[2,3-b]pyridin-4-yl)benzamide] | 100 to 500 | > 10000
N#C/C(=C\c1c[nH]c2ncccc12)C(=O)NCc1cccc(Cl)c1 [Example 60, (E)-N-(3-chlorobenzyl)-2-cyano-3-(1H-pyrrolo[2,3-b]pyridin-3-yl)acrylamide] | 100 to 500 | 100 to 500
COc1ccc([C@@H](C)NC(=O)/C(C#N)=C/c2c[nH]c3ncc(-c4cccc(CN5CCN(C(C)=O)CC5)c4)cc23)cc1OC [Example 141, (R,E)-3-(5-(3-((4-acetylpiperazin-1-yl)methyl)phenyl)-1H-pyrrolo[2,3-b]pyridin-3-yl)-2-cyano-N-(1-(3,4-dimethoxyphenyl)ethyl)acrylamide] | ≤ 50 | 1000 to 10000
